Experimental data published in US20100144688A1, “23-Substituted Derivatives of Lupane-type Pentacyclic Triterpenoids” (ADVANCED LIFE SCIENCES, INC., priority 2008, published 2010).

Columns and labels:
[1] = system: Daoy (glioblastoma); experiment: MTS cell viability assay, Daoy; type: cell-based; conditions: Homo sapiens, Daoy, 72 h incubation
Procedure: (§1) Cells were plated, the evening before treatment, for each treatment on 96-well plates (1×10^4 cells/well) in 100 μL volume per well. Analog solutions were prepared by diluting each test compound in DMSO (10 mM) with the appropriate cell growth media for each individual cell line, or in “Universal Media” if several cell lines were to be assayed in parallel, immediately prior to cell treatment. Universal Media consisted of 5 mL sodium pyruvate (100× liquid stock, MediaTech), 5 mL glucose (100×, 45% liquid stock, MediaTech), 5 mL Penicillin/Streptomycin (100× liquid stock, MediaTech), 10 mL sodium bicarbonate (50× liquid stock, MediaTech), 25 mL Fetal Calf Serum, 1.25 mL insulin (4 mg/mL, Gibco) and 449 mL RPMI media with 2 mM L-glutamine for a total volume of 500 mL.
(§2) Cells were treated by aspirating plating media from each well and adding 80 μL of betulinic acid (control) or each analog solution in serial dilutions to the adherent cells. All treatments were performed in triplicate. Growth media (80 μL) was added to 3 blank wells (no cells) to measure background from the growth media. Growth media alone (no DMSO or test compound) was added to 3 wells containing cells to measure the baseline MTS activity. Vehicle (DMSO) control in serial dilutions, added to cells, was also included to monitor basal toxicity from DMSO. Cells were incubated at 37° C. for 72 h, or 120 h for the OVCAR cell lines. MTS reagent (per 96-well plate) were prepared by combining 2 mL of MTS working solution (Cell Titer Aqueous Non-Radioactive Cell Proliferation Assay, Promega, cat#G1112), 100 μL of 0.92 mg/mL phenazine methosulfate/Dulbecco's PBS and 2.1 mL growth media. MTS reagent (40 μL) was added to each well and incubated at 37° C. for 1.5 to 4 h. Plates were gently shaken by hand until solution in each well appeared homogenous. Absorbances at 490 nm were measured on a Wallac Victor II plate reader at multiple time points following the addition of MTS reagent for each plate. Triplicate absorbance (490 nm) measurements were averaged following background (no cell) subtraction for each drug concentration. Percent Cell Viability was calculated for each drug concentration using the following equation:
(§3) {[Absorbance(analog treated)]/[Absorbance(DMSO treated)]}×100%
(§4) Percent viability (y-axis) was plotted against drug concentration (x-axis) and the resulting graph was used to determine the 50% inhibitory concentration (IC50) for each drug.
(§5) Cytotoxicity dose response for the synthesized triterpenoid derivatives in SK-MEL-2 (melanoma), A-375 (melanoma), Daoy (glioblastoma), LN-229 (glioblastoma), OVCAR-3 (ovarian carcinoma), HT-29 (colon carcinoma), MCF-7 (breast carcinoma) cell lines using the standard MTS assay (described above) is summarized in Table 1.

[2] = system: SK-MEL-2 (melanoma); experiment: MTS cell viability assay, SK-MEL-2; type: cell-based; conditions: Homo sapiens, SK-MEL-2, 72 h incubation
Procedure: as §1, §2, §3, §4, §5

[3] = system: LN-229 (glioblastoma); experiment: MTS cell viability assay, LN-229; type: cell-based; conditions: Homo sapiens, LN-229, 72 h incubation
Procedure: as §1, §2, §3, §4, §5

[4] = system: A-375 (melanoma); experiment: MTS cell viability assay, A-375; type: cell-based; conditions: Homo sapiens, A-375, 72 h incubation
Procedure: as §1, §2, §3, §4, §5

[5] = system: HT-29 (colon carcinoma); experiment: MTS cell viability assay, HT-29; type: cell-based; conditions: Homo sapiens, HT-29, 72 h incubation
Procedure: as §1, §2, §3, §4, §5

[6] = system: MCF-7 (breast carcinoma); experiment: MTS cell viability assay, MCF-7; type: cell-based; conditions: Homo sapiens, MCF7, 72 h incubation
Procedure: as §1, §2, §3, §4, §5

[7] = system: murine melanoma B16 cells; conditions: cited from earlier work
[8] = system: human leukemia HL-60 cells; conditions: by decrease in telomerase activity and down-regulation of bcl-2; cited from earlier work
[9] = system: human colon carcinoma cell lines (Caco-2); conditions: Caco-2, at approximately 60 minutes; cited from earlier work

Row | SMILES | IC50 [1] [µM] | IC50 [2] [µM] | other results
1 | C=C(C)[C@@H]1CC[C@]2(COC(C)=O)CC[C@]3(C)[C@H](CC[C@@H]4[C@@]5(C)CCC(=NO)C(C)(CO)[C@@H]5CC[C@]43C)[C@@H]12 (some centres unmarked) [Compound 17c] | 16 | 16 | 
2 | C=C(C)[C@@H]1CC[C@]2(C=NO)CC[C@]3(C)[C@H](CC[C@@H]4[C@@]5(C)CCC(=NO)C(C)(CO)[C@@H]5CC[C@]43C)[C@@H]12 (some centres unmarked) [Compound 30] | 5 | 3 | IC50 [3]: 16 µM; IC50 [4]: 4 µM; IC50 [5]: 13 µM; IC50 [6]: < 2 µM
3 | C=C(C)[C@@H]1CC[C@]2(C#N)CC[C@]3(C)[C@H](CC[C@@H]4[C@@]5(C)CCC(=NOC(C)=O)C(C)(COC(C)=O)[C@@H]5CC[C@]43C)[C@@H]12 (some centres unmarked) [Compound 35] | 31 | 24 | 
4 | C=C(C)[C@@H]1CC[C@]2(CO)CC[C@]3(C)[C@H](CC[C@@H]4[C@@]5(C)CCC(NC(C)=O)C(C)(CO)[C@@H]5CC[C@]43C)[C@@H]12 (some centres unmarked) [Compound 27] | > 75 | 64 | 
5 | C=C(C)[C@@H]1CC[C@]2(CO)CC[C@]3(C)[C@H](CC[C@@H]4[C@@]5(C)CCC(=NOC(C)=O)C(C)(COC(C)=O)[C@@H]5CC[C@]43C)[C@@H]12 (some centres unmarked) [Compound 15b] | 34 | 35 | 
6 | C=C(CO)[C@@H]1CC[C@]2(COC(C)=O)CC[C@]3(C)[C@H](CC[C@@H]4[C@@]5(C)CCC(=O)C(C)(COC(C)=O)[C@@H]5CC[C@]43C)[C@@H]12 (some centres unmarked) [Compound 40c] | 56 | 33 | 
7 | C=C(C)[C@@H]1CC[C@]2(CO)CC[C@]3(C)[C@H](CC[C@@H]4[C@@]5(C)CCC(=O)C(C)(CO)[C@@H]5CC[C@]43C)[C@@H]12 (some centres unmarked) [Compound 18b] | 34 | > 75 | 
8 | C=C(C)[C@@H]1CC[C@]2(CO)CC[C@]3(C)[C@H](CC[C@@H]4[C@@]5(C)CCC(N)C(C)(CO)[C@@H]5CC[C@]43C)[C@@H]12 (some centres unmarked) [Compound 23] | 2 | 2 | IC50 [3]: 15 µM; IC50 [4]: 5 µM; IC50 [5]: 6 µM; IC50 [6]: 5 µM
9 | C=C(C)[C@@H]1CC[C@]2(CO)CC[C@]3(C)[C@H](CC[C@@H]4[C@@]5(C)CC[C@H](O)C(C)(CO)[C@@H]5CC[C@]43C)[C@@H]12 (some centres unmarked) [Compound 5, 23-hydroxybetulin, reference compound] | 65 | > 75 | 
10 | C=C(CO)[C@@H]1CC[C@]2(COC(C)=O)CC[C@]3(C)[C@H](CC[C@@H]4[C@@]5(C)CC[C@H](O)C(C)(COC(C)=O)[C@@H]5CC[C@]43C)[C@@H]12 (some centres unmarked) [Compound 43e] | 16 | 16 | 
11 | C=C(CO)[C@@H]1CC[C@]2(CO)CC[C@]3(C)[C@H](CC[C@@H]4[C@@]5(C)CCC(N)C(C)(CO)[C@@H]5CC[C@]43C)[C@@H]12 (some centres unmarked) [Compound 44b] | 18 | 17 | 
12 | C=C(C)[C@@H]1CC[C@]2(COC(C)=O)CC[C@]3(C)[C@H](CC[C@@H]4[C@@]5(C)CCC(NC(C)=O)C(C)(COC(C)=O)[C@@H]5CC[C@]43C)[C@@H]12 (some centres unmarked) [Compound 25] | 38 | 36 | 
13 | C=C(C)[C@@H]1CC[C@]2(COC(C)=O)CC[C@]3(C)[C@H](CC[C@@H]4[C@@]5(C)CCC(=O)C(C)(COC(C)=O)[C@@H]5CC[C@]43C)[C@@H]12 (some centres unmarked) [Compound 38] | 31 | 18 | 
14 | C=C(C=O)[C@@H]1CC[C@]2(COC(C)=O)CC[C@]3(C)[C@H](CC[C@@H]4[C@@]5(C)CCC(=O)C(C)(COC(C)=O)[C@@H]5CC[C@]43C)[C@@H]12 (some centres unmarked) [Compound 49a] | 9 | 5 | IC50 [3]: 15 µM; IC50 [4]: 5 µM; IC50 [5]: 5 µM; IC50 [6]: 4 µM
15 | C=C(C)[C@@H]1CC[C@]2(C=NO)CC[C@]3(C)[C@H](CC[C@@H]4[C@@]5(C)CCC(=NOC(C)=O)C(C)(COC(C)=O)[C@@H]5CC[C@]43C)[C@@H]12 (some centres unmarked) [Compound 29] | 14 | 16 | 
16 | C=C(C)[C@@H]1CC[C@]2(C(=O)O)CC[C@]3(C)[C@H](CC[C@@H]4[C@@]5(C)CC[C@H](O)C(C)(CO)[C@@H]5CC[C@]43C)[C@@H]12 (some centres unmarked) [Compound 1, 23-Hydroxybetulinic acid] | > 75 | > 75 | growth arrest and apoptotic cell death, B16 ([7]; by increase in reactive oxidative species and dissipation of mitochondrial membrane potential): induces growth arrest and apoptotic cell death; potency against murine melanoma B16 cells ([7]; compared with betulinic acid (2)): increased potency; growth arrest and apoptotic cell death, HL-60 [8]: induces growth arrest and apoptotic cell death; intracellular concentration (cellular uptake) [9]: 906.7 μM/mg protein
17 | C=C(C)[C@@H]1CC[C@]2(COC(C)=O)CC[C@]3(C)[C@H](CC[C@@H]4[C@@]5(C)CCC(=O)C(C)(CO)[C@@H]5CC[C@]43C)[C@@H]12 (some centres unmarked) [Compound 18c] | 16 | 29 | 
18 | C=C(CO)[C@@H]1CC[C@]2(C(=O)O)CC[C@]3(C)[C@H](CC[C@@H]4[C@@]5(C)CCC(N)C(C)(CO)[C@@H]5CC[C@]43C)[C@@H]12 (some centres unmarked) [Compound 44a] | > 75 | > 75 | 
19 | C=C(C)[C@@H]1CC[C@]2(C(=O)O)CC[C@]3(C)[C@H](CC[C@@H]4[C@@]5(C)CCC(N)C(C)(CO)[C@@H]5CC[C@]43C)[C@@H]12 (some centres unmarked) [Compound 22] | 38 | 36 | 
20 | C=C(CO)[C@@H]1CC[C@]2(C#N)CC[C@]3(C)[C@H](CC[C@@H]4[C@@]5(C)CCC(N)C(C)(CO)[C@@H]5CC[C@]43C)[C@@H]12 (some centres unmarked) [Compound 44d] | 73 | 32 | 
21 | C=C(C)[C@@H]1CC[C@]2(C(=O)O)CC[C@]3(C)[C@H](CC[C@@H]4[C@@]5(C)CCC(=O)C(C)(CO)[C@@H]5CC[C@]43C)[C@@H]12 (some centres unmarked) [Compound 4, 23-hydroxybetulonic acid, reference compound] | 59 | 33 | 
22 | C=C(CO)[C@@H]1CC[C@]2(C#N)CC[C@]3(C)[C@H](CC[C@@H]4[C@@]5(C)CCC(=NOC(C)=O)C(C)(COC(C)=O)[C@@H]5CC[C@]43C)[C@@H]12 (some centres unmarked) [Compound 39d] | 33 | 14 | melting point: 141 to 143 °C
23 | C=C(CO)[C@@H]1CC[C@]2(C(=O)O)CC[C@]3(C)[C@H](CC[C@@H]4[C@@]5(C)CC[C@H](O)C(C)(CO)[C@@H]5CC[C@]43C)[C@@H]12 (some centres unmarked) [Compound 43a] | > 75 | > 75 | 
24 | C=C(C)[C@@H]1CC[C@]2(C#N)CC[C@]3(C)[C@H](CC[C@@H]4[C@@]5(C)CCC(N)C(C)(CO)[C@@H]5CC[C@]43C)[C@@H]12 (some centres unmarked) [Compound 37] | 17 | 14 | 
